Measured values as given in article PMC10247784, “Physiological activation of human and mouse bitter taste receptors by bile acids” (Communications Biology, 2023).

Tested on: HEK293T-Gα16gust44 cells transfected with empty vector (mock)
Test: Calcium imaging assay (FLIPR), empty vector control (mock)
Assay type: cell-based
Summary of the method: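 Read-out is Fluo-4 fluorescence change (ΔF/F) after automated application of bile acids (DMSO stocks) to transiently transfected cells. Values are corrected for empty-vector cells and normalized to buffer. Dose-response from three independent experiments in duplicate; threshold concentration set at p < 0.01 versus mock.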

Structure (SMILES): C[C@H](CCC(=O)O)[C@H]1CC[C@H]2[C@@H]3[C@@H](O)C[C@@H]4C[C@H](O)CC[C@]4(C)[C@H]3CC[C@]12C [Ursodeoxycholic Acid, ursodeoxycholic acid]
- Δ F/F (Mock (sheet Tas2r123), conc. 0,01 mM): -0.001066
- Δ F/F (Mock (sheet Tas2r123), conc. 0,03 mM): -0.001504
- Δ F/F (Mock (sheet Tas2r123), conc. 0,0001 mM): -0.001573
- Δ F/F (Mock (sheet Tas2r123), conc. 0,0003 mM): -0.001292
- Δ F/F (Mock (sheet Tas2r123), conc. 0,001 mM): -0.005211
- Δ F/F (Mock (sheet Tas2r123), conc. 0,003 mM): -0.001793
- Δ F/F (Mock, sheet TAS2R4, conc. 0,01 mM): -0.0004613
- Δ F/F (Mock, sheet TAS2R4, conc. 0,03 mM): -0.0005491
- Δ F/F (Mock, sheet TAS2R4, conc. 0,00003 mM): -0.0004806
- Δ F/F (Mock, sheet TAS2R4, conc. 0,0001 mM): -0.001738
- Δ F/F (Mock, sheet TAS2R4, conc. 0,0003 mM): 0.0005593
- Δ F/F (Mock, sheet TAS2R4, conc. 0,001 mM): -0.001147
- Δ F/F (Mock, sheet TAS2R4, conc. 0,003 mM): -0.0007234
- Δ F/F (conc. 0,01 mM, Mock (sheet TAS2R1)): 0.000483
- Δ F/F (conc. 0,03 mM, Mock (sheet TAS2R1)): -0.001233
- Δ F/F (conc. 0,0001 mM, Mock (sheet TAS2R1)): 0.0008084
- Δ F/F (conc. 0,0003 mM, Mock (sheet TAS2R1)): -0.0004379
- Δ F/F (conc. 0,001 mM, Mock (sheet TAS2R1)): -0.001051
- Δ F/F (conc. 0,003 mM, Mock (sheet TAS2R1)): -0.001084
